Assay results taken from US10106757B2, “Ionic liquid, lubricant, and magnetic recording medium” (DEXERIALS CORPORATION, priority 2016, dated 2018).

Tests used:
[1] = Solubility test in fluorine-based solvent Vertrel XF; type: physicochemical; details: 25° C., 0.2 parts by mass added to 100 parts, ultrasonic 5 minutes, left 1 day, visually observed
Protocol: (§1) To a predetermined amount of Vertrel XF or n-hexane, the ionic liquid, Z-DOL, or Z-TETRAOL was added. Ultrasonic waves were applied to the resultant mixture for 5 minutes, followed by leaving the mixture to stand for 1 day. The solubility was visually observed.
Specifically, 0.2 parts by mass of the ionic liquid, Z-DOL, or Z-TETRAOL was added to 100 parts by mass of Vertrel XF (25° C.). After applying ultrasonic waves to the resultant for 5 minutes, the resultant was left to stand for 1 day. Thereafter, the solubility was visually observed and evaluated based on the following evaluation criteria.
[Evaluation Criteria (Fluorine-Based Solvent)]
• 0.2% by mass or greater:
Soluble with addition of 0.2 parts by mass • Less than 0.2% by mass:
Insoluble with addition of 0.2 parts by mass
(§2) Note that, the solubility was visually observed, and it was judged as soluble when it was transparent. Moreover, it was judged as not soluble (insoluble) when it was opaque or insoluble components were observed.

[2] = Solubility test in hydrocarbon-based solvent n-hexane; type: physicochemical; details: 25° C., 0.5 parts by mass added to 100 parts, ultrasonic 5 minutes, left 1 day, visually observed
Protocol: as §1
In case of n-hexane, similarly, 0.5 parts by mass of the ionic liquid, Z-DOL, or Z-TETRAOL was added to 100 parts by mass of n-hexane at 25° C. After applying ultrasonic waves to the resultant for 5 minutes, the resultant was left to stand for 1 day. Thereafter, the solubility was visually observed and evaluated based on the following evaluation criteria.
[Evaluation Criteria (Hydrocarbon-Based Solvent)]
• 0.5% by mass or greater:
Soluble with addition of 0.5 parts by mass • Less than 0.5% by mass:
Insoluble with addition of 0.5 parts by mass
as §2

[3] = Thermal stability by TG/DTA measurement; type: physicochemical; details: for Weight reduction temperature 5% / Weight reduction temperature 10% / Weight reduction temperature 20%: TG/DTA, 30-600° C., 10° C./min, air 200 mL/min; for Weight reduction temperatures higher than / thermal stability improved compared with Z-DOL: compared with Z-DOL (Comparative Example 5C); for Weight reduction temperatures higher than / thermal stability improved compared with Z-TETRAOL: compared with Z-TETRAOL (Comparative Example 6C)
[4] = in acetonitrile; cited from earlier work

CCCCCCCCCCCCn1cc[n+](CCCCCCCCCCCC)c1CCCCCCCCCCC.O=S(=O)([N-]S(=O)(=O)C(F)(F)C(F)(F)C(F)(F)C(F)(F)F)C(F)(F)C(F)(F)C(F)(F)C(F)(F)F [Ex. 2A, bis(nonafluorobutanesulfonyl)imide-1,3-didodecyl-2-undecylimidazolium]
Solubility Vertrel XF [1]: ≥ 0.2% by mass
Solubility Vertrel XF ([1]; listed as Example 2A): ≥ 0.2 % by mass
Solubility n-hexane [2]: ≥ 0.5% by mass
Solubility n-hexane ([2]; listed as Example 2A): ≥ 0.5 % by mass
Weight reduction temperature 5% [3]: 335.7 °C
Weight reduction temperature 10% [3]: 368.9 °C
Weight reduction temperature 20% [3]: 395.7 °C

CCCCCCCCCCCCn1cc[n+](CCCCCCCCCCCC)c1CCCCCCCCCCC.O=S(=O)([N-]S(=O)(=O)C(F)(F)C(F)(F)C(F)(F)C(F)(F)F)C(F)(F)C(F)(F)C(F)(F)C(F)(F)F
Weight reduction temperatures higher than / thermal stability improved compared with Z-DOL [3]: ≥ 170 °C
Weight reduction temperatures higher than / thermal stability improved compared with Z-TETRAOL [3]: ≥ 90 °C

CCCCCCCCCCCCCCCCCCn1cc[n+](CCCCCCCCCCCCCCCCCC)c1CCCCCCCCCCCCCCCCC.O=S(=O)([N-]S(=O)(=O)C(F)(F)C(F)(F)C(F)(F)C(F)(F)F)C(F)(F)C(F)(F)C(F)(F)C(F)(F)F
Weight reduction temperatures higher than / thermal stability improved compared with Z-DOL [3]: ≥ 140 °C
Weight reduction temperatures higher than / thermal stability improved compared with Z-TETRAOL [3]: ≥ 60 °C

O=S(=O)(C(S(=O)(=O)C(F)(F)F)S(=O)(=O)C(F)(F)F)C(F)(F)F [(CF3SO2)3CH]
pKa [4]: −3.7

nonafluorobutanesulfonic acid-1,3-didodecyl-2-undecylimidazolium
Weight reduction temperature 5% [3]: 287.9 °C
Weight reduction temperature 10% [3]: 331.8 °C
Weight reduction temperature 20% [3]: 378.4 °C
Weight reduction temperatures higher than / thermal stability improved compared with Z-DOL [3]: ≥ 130 °C
Weight reduction temperatures higher than / thermal stability improved compared with Z-TETRAOL [3]: ≥ 40 °C

CCCCCCCCCCCCCCCCCC[n+]1ccn(CCCC)c1.O=S1(=O)[N-]S(=O)(=O)C(F)(F)C(F)(F)C1(F)F [Comp. Ex. 2A, hexafluorocyclopropane-1,3-bis(sulfonyl)imide-1-butyl-3-n-octadecylimidazolium, reference compound]
Solubility Vertrel XF [1]: < 0.2% by mass
Solubility n-hexane [2]: < 0.5% by mass

nonafluorobutanesulfonic acid-1,3-dioctadecyl-2-heptadecylimidazolium
Weight reduction temperature 5% [3]: 279.7 °C
Weight reduction temperature 10% [3]: 310.9 °C
Weight reduction temperature 20% [3]: 361.9 °C
Weight reduction temperatures higher than / thermal stability improved compared with Z-DOL [3]: ≥ 110 °C
Weight reduction temperatures higher than / thermal stability improved compared with Z-TETRAOL [3]: ≥ 40 °C

CCCCCCCCCCCCCCCCCCn1cc[n+](CCCCCCCCCCCCCCCCCC)c1CCCCCCCCCCCCCCCCC.O=S(=O)([N-]S(=O)(=O)C(F)(F)C(F)(F)C(F)(F)C(F)(F)F)C(F)(F)C(F)(F)C(F)(F)C(F)(F)F [Ex. 4A, bis(nonafluorobutanesulfonyl)imide-1,3-dioctadecyl-2-heptadecylimidazolium]
Solubility Vertrel XF [1]: < 0.2% by mass
Solubility Vertrel XF ([1]; listed as Example 4A): less than 0.2 % by mass
Solubility n-hexane [2]: ≥ 0.5% by mass
Solubility n-hexane ([2]; listed as Example 4A): ≥ 0.5 % by mass
Weight reduction temperature 5% [3]: 300.1 °C
Weight reduction temperature 10% [3]: 337.3 °C
Weight reduction temperature 20% [3]: 385.8 °C
